Source: PubChem BioAssay AID2060337 (Molecular Pharmacology Branch, DTP, NCI, 2025)
“And” between values parts separate entries of the source, which are not always exact repeats. Equal values may be shown once.

Test system: 832693-133-R-J1-PDC multi-cell spheroids, viability
Experiment: Anticancer human tumor 832693-133-R-J1-PDC patient-derived head and neck squamous carcinoma cell line growth inhibition [IpAb]
Settings: for viability, T/C: stronger effect = lower value
From the text: Combinatorial screen of targeted agents with ipatasertib and abemaciclib in multi-cell type tumor spheroids
A high-throughput screen of multi-cell type tumor spheroids was designed to identify active combinations of targeted small molecules and ipatasertib or abemaciclib. Complex spheroids include a stromal component modeled by human endothelial cells (HUVEC) and fibroblasts modeled by human mesenchymal stem cells (MSCs). The concentration ranges selected for each drug and investigational agent were based upon clinically achievable concentrations if the clinical Cmax of the agent was known.
Compounds. The drugs and investigational agents: ipatasertib (NSC767898), abemaciclib(NSC768073), selumetinib (NSC741078), trametinib (758246), adavosertib (NSC754352), everolimus (NSC733504), sapanisertib (NSC764658), vemurafenib (NSC761431), venetoclax (NSC766270), copanlisib (NSC809693), apelisib (NSC765974), palbociblib (NSC758247), vemurafenib (NSC761431), dabrafenib (NSC764134), ravoxertinib (NSC781343), BMS-387032 (NSC767048), sotorasib (NSC818433), talazoparib (NSC767125) and afursertib (NSC778305), were obtained from the National Cancer Institute (NCI) Developmental Therapeutics Program Chemical Repository. The FDA-approved anticancer drug set is available from the NCI Developmental Therapeutics Program. […] The stock solutions were prepared in dimethyl sulfoxide (DMSO, Sigma-Aldrich, St. Louis, MO, cat. D2650) at 800-fold the tested concentration and stored at -70 degrees C prior to their use. All drugs and investigational agents were tested over a range starting from a high concentration at or near the clinical Cmax and decreasing in half-log increments. If the clinical Cmax for an agent had not been determined, the highest concentration tested was 10 microM.
NCI60 Cell Culture. NCI60 cell lines were obtained from the NCI Developmental Therapeutics Program Tumor Repository. For each lot of cells, the Repository performed Applied Biosystems AmpFLSTR Identifiler testing with PCR amplification to confirm consistency with the published Identifier STR profile for each cell line. Cells were kept in continuous culture for no more than 20 passages. The optimal seeding densities for each of the cell lines at each time point assessed were determined prior to performing the concentration response studies. Briefly, the NCI60 human tumor lines were grown as monolayers in RPMI 1640 medium supplemented with 10% FBS and 2 mmol/L L-glutamine.
An additional 9 lines were from the NCI60 cell line panel including MDA-MB-231 breast carcinoma, MDA-MB-468 breast carcinoma, MCF7 breast carcinoma, Hs578T breast carcinoma, MALME-3M melanoma, SK-MEL-2 melanoma, SK-OV-3 ovarian carcinoma, DU-145 prostate carcinoma, PC-3 prostate carcinoma, all cell lines along with major genetic alterations are listed on Table 2. Pooled donor human umbilical vein endothelial cells (HUVEC, Lonza, cat. CC-2519) and human mesenchymal stem cells (hMSC, Lonza, cat. PT-2501) were purchased from Lonza (Walkersville, MD).
PDMR cell lines were grown in complete medium (DC medium): Dulbecco's modified Eagle's medium (DMEM)/F12 supplemented with 5% fetal bovine serum (FBS), 2 mM L-glutamine, 100 U/mL penicillin and 100 µg/ml streptomycin, 0.4 µg/ml hydrocortisone, 10 ng/ml epidermal growth factor (EGF) recombinant human protein, 24 µg/mL adenine, and 0.1 mg/mL primocin. During culture from frozen stock vials, PDMR cells were cultured in the same medium containing 10 µM Y-27632 (see Table 3). The PDCs were cultured in complete DMEM/F12 media without 10 microM Y-27632 dihydrochloride for at least two passages prior to the screen. The pooled donor HUVEC and hMSC were cultured in endothelial cell growth medium 2 (PromoCell, Heidelberg, Germany, cat. C-22011) and mesenchymal stem cell growth medium 2 (PromoCell, cat. C-28009), respectively. For all experiments, HUVEC and hMSC were used at passages </=5.
[…]

[1] = curve of first compound, second compound 0.01 µM
[2] = curve of first compound, second compound 0.0316 µM
[3] = curve of first compound, second compound 0.1 µM
[4] = curve of first compound, second compound 0.316 µM
[5] = curve of first compound, second compound 1 µM
[6] = second compound 0.01 µM, first compound 0.000316 µM
[7] = second compound 0.01 µM, first compound 0.001 µM
[8] = second compound 0.01 µM, first compound 0.00316 µM
[9] = second compound 0.01 µM, first compound 0.01 µM
[10] = second compound 0.01 µM, first compound 0.0316 µM
[11] = second compound 0.01 µM, first compound 0.1 µM
[12] = second compound 0.0316 µM, first compound 0.000316 µM
[13] = second compound 0.0316 µM, first compound 0.001 µM
[14] = second compound 0.0316 µM, first compound 0.00316 µM
[15] = second compound 0.0316 µM, first compound 0.01 µM
[16] = second compound 0.0316 µM, first compound 0.0316 µM
[17] = second compound 0.0316 µM, first compound 0.1 µM
[18] = second compound 0.1 µM, first compound 0.000316 µM
[19] = second compound 0.1 µM, first compound 0.001 µM
[20] = second compound 0.1 µM, first compound 0.00316 µM
[21] = second compound 0.1 µM, first compound 0.01 µM
[22] = second compound 0.1 µM, first compound 0.0316 µM
[23] = second compound 0.1 µM, first compound 0.1 µM
[24] = second compound 0.316 µM, first compound 0.000316 µM
[25] = second compound 0.316 µM, first compound 0.001 µM
[26] = second compound 0.316 µM, first compound 0.00316 µM
[27] = second compound 0.316 µM, first compound 0.01 µM
[28] = second compound 0.316 µM, first compound 0.0316 µM
[29] = second compound 0.316 µM, first compound 0.1 µM
[30] = second compound 1 µM, first compound 0.000316 µM
[31] = second compound 1 µM, first compound 0.001 µM
[32] = second compound 1 µM, first compound 0.00316 µM
[33] = second compound 1 µM, first compound 0.01 µM
[34] = second compound 1 µM, first compound 0.0316 µM
[35] = second compound 1 µM, first compound 0.1 µM
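Note: spheroids exposed to the drugs for one week before the viability readout.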
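Throughout, for viability, T/C: 100% = DMSO vehicle control wells.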

## CC(C)n1nc(-c2ccc3oc(N)nc3c2)c2c(N)ncnc21 + CCN1CCN(Cc2ccc(Nc3ncc(F)c(-c4cc(F)c5nc(C)n(C(C)C)c5c4)n3)nc2)CC1
[1]
  IC50: > 0.1 µM
[2]
  IC50: 0.0363 µM
[3]
  IC50: 0.0106 µM
[4]
  IC50: 0.00203 µM
[5]
  IC50: 0.000859 µM
[6]
  viability, T/C: 83%
[7]
  viability, T/C: 82.8%
[8]
  viability, T/C: 73.5%
[9]
  viability, T/C: 77.8%
[10]
  viability, T/C: 50.6%
[11]
  viability, T/C: 53.2%
[12]
  viability, T/C: 71.8%
[13]
  viability, T/C: 73.6%
[14]
  viability, T/C: 64%
[15]
  viability, T/C: 61%
[16]
  viability, T/C: 52.4%
[17]
  viability, T/C: 38.4%
[18]
  viability, T/C: 61%
[19]
  viability, T/C: 56%
[20]
  viability, T/C: 52.7%
[21]
  viability, T/C: 53%
[22]
  viability, T/C: 43%
[23]
  viability, T/C: 34.5%
[24]
  viability, T/C: 50.6%
[25]
  viability, T/C: 55.7%
[26]
  viability, T/C: 49%
[27]
  viability, T/C: 42.3%
[28]
  viability, T/C: 42.9%
[29]
  viability, T/C: 34.8%
[30]
  viability, T/C: 59.5%
[31]
  viability, T/C: 50.3%
[32]
  viability, T/C: 41.6%
[33]
  viability, T/C: 38.2%
[34]
  viability, T/C: 39.8%
[35]
  viability, T/C: 38.6%

## CC1(C)CCC(CN2CCN(c3ccc(C(=O)NS(=O)(=O)c4ccc(NCC5CCOCC5)c([N+](=O)[O-])c4)c(Oc4cnc5[nH]ccc5c4)c3)CC2)=C(c2ccc(Cl)cc2)C1
Compound 0.0316 µM
  viability, T/C: 98.5% and 113%
Compound 0.1 µM
  viability, T/C: 98.3% and 122%
Compound 0.316 µM
  viability, T/C: 106% and 107%
Compound 1 µM
  viability, T/C: 108% and 102%
Compound 3.16 µM
  viability, T/C: 110% and 90.5%
Curve of compound
  IC50: 8.78 µM and 5.33 µM

## Cn1ncnc1[C@H]1c2n[nH]c(=O)c3cc(F)cc(c23)N[C@@H]1c1ccc(F)cc1 + CCN1CCN(Cc2ccc(Nc3ncc(F)c(-c4cc(F)c5nc(C)n(C(C)C)c5c4)n3)nc2)CC1
[1]
  IC50: > 0.1 µM
[2]
  IC50: > 0.1 µM
[3]
  IC50: > 0.1 µM
[4]
  IC50: > 0.1 µM
[5]
  IC50: > 0.1 µM
[6]
  viability, T/C: 101%
[7]
  viability, T/C: 109%
[8]
  viability, T/C: 93.2%
[9]
  viability, T/C: 91.9%
[10]
  viability, T/C: 94.7%
[11]
  viability, T/C: 77.3%
[12]
  viability, T/C: 90.5%
[13]
  viability, T/C: 86.1%
[14]
  viability, T/C: 73.8%
[15]
  viability, T/C: 74.6%
[16]
  viability, T/C: 76%
[17]
  viability, T/C: 69.5%
[18]
  viability, T/C: 60.1%
[19]
  viability, T/C: 58%
[20]
  viability, T/C: 61%
[21]
  viability, T/C: 70.5%
[22]
  viability, T/C: 63%
[23]
  viability, T/C: 63.2%
[24]
  viability, T/C: 59.1%
[25]
  viability, T/C: 53.6%
[26]
  viability, T/C: 60.5%
[27]
  viability, T/C: 56.5%
[28]
  viability, T/C: 60.8%
[29]
  viability, T/C: 56.3%
[30]
  viability, T/C: 63.6%
[31]
  viability, T/C: 56.2%
[32]
  viability, T/C: 60.6%
[33]
  viability, T/C: 63.5%
[34]
  viability, T/C: 65.2%
[35]
  viability, T/C: 48.2%
